From patent publication US20060189641A1, “Novel 6-phenlyphenanthridines” (priority 2003, published 2006)

Tested on: PDE4
Experiment: Inhibition of the PDE4 activity (cytosol from human neutrophils, [3H]cAMP hydrolysis)
Format: biochemical
Parameters: unit not given here
Settings: 0.5 μM cAMP, Motapizone 1 μM to suppress PDE3
Procedure: Method for Measuring Inhibition of PDE4 Activity
PDE4 activity was determined as described by Thompson et al. (Adv Cycl Nucl Res 10:69-92, 1979) with some modifications (Bauer and Schwabe, Naunyn-Schmiedeberg's Arch Pharmacol 311:193-198, 1980). At a final assay volume of 200 μl (96well microtiter plates) the assay mixture contained 20 mM Tris (pH 7.4), 5 mM MgCl2, 0.5 μM cAMP, [^3H]cAMP (about 30,000 cpm/assay), the test compound and an aliquot of cytosol from human neutrophilis which mainly contains PDE4 activity as described by Schudt et al. (Naunyn-Schmledeberg's Arch Pharmacol 344:682-690, 1991); the PDE3-specific inhibitor Motapizone (1 μM) was included to suppress PDE3 activity originating from contaminating platelets. Serial dilutions of the compounds were prepared in DMSO and further diluted 1:100 (v/v) in the assays to obtain the desired final concentrations of the inhibitors at a DMSO concentration of 1% (v/v) which by itself only slightly affected PDE4 activity.
After preincubation for 5 min at 37° C., the reaction was started by the addition of substrate (cAMP) and the assays were incubated for further 15 min at 37° C. 50 μl of 0.2 N HCl was added to stop the reaction and the assays were left on ice for about 10 min. Following incubation with 25 μg 5′-nucleotidase (Crotalus atrox snake venom) for 10 min at 37° C., the assays were loaded on QAE Sephadex A-25 (1 ml bed volume). The columns were eluted with 2 ml of 30 mM ammonium formulate (pH 6.0) and the […] for radioactivity. Results were corrected for blank values (measured in the presence of denatured protein) which were below 5% of total radioactivity. […] The IC50 -values for the compounds according to the invention for the inhibition of the PDE4 activity were determined from the concentration-inhibition curves by nonlinear-regression.

Compared with COc1cc2c(cc1OC)[C@H]1CCCC[C@H]1N=C2c1ccc(C(C)=NOCCOc2cccc(C(F)(F)F)c2)cc1 [Compound 20, 1-[4-((4aR,10bR)-8,9-Dimethoxy-1,2,3,4,4a,10b-hexahydrophenanthridin-6-yl}-phenyl]-ethanone O-[2-(3-trifluoromethylphenoxy)-ethyl]-oxime], COc1cc2c(cc1OC)[C@H]1CCCC[C@H]1N=C2c1ccc(C(C)=NOCc2cccc(C(F)(F)F)c2)cc1 [Compound 14, 1-[4-((4aR,10bR)-8,9-Dimethoxy-1,2,3,4,4a,10b-hexahydrophenanthridin-6-yl}-phenyl]-ethanone O-(3-trifluoromethylbenzyl)-oxime] is higher in “−log IC50, Inhibition of the PDE4 activity” value (from here on “−log IC50, Inhibition”): 8.00 for the first, 8.43 for the second.

Going from COc1cc2c(cc1OC)C1CCCCC1N=C2c1ccc(C(C)=NOc2ccccc2)cc1 [Compound 7, 1-[4-((4aR,10bR)-8,9Dimethoxy-1,2,3,4,a,10b-hexahydrophenanthridin-6-yl}-phenyl]ethanone O-phenyloxime] to COc1cc2c(cc1OC)[C@H]1CCCC[C@H]1N=C2c1ccc(C(C)=NOCCOc2ccccc2)cc1 [Compound 19, 1-[4-((4aR,10bR)-8,9-Dimethoxy-1,2,3,4,4a,10b-hexahydrophenanthridin-6-yl)-phenyl]-ethanone O-(2-phenoxyethyl)-oxime], the “−log IC50, Inhibition” value rises from 8.26 to 8.73.

COc1cc2c(cc1OC)C1CCCCC1N=C2c1ccc(C(C)=NOCc2cccc(Cl)c2)cc1 (centres unmarked) [Compound 13] and COc1cc2c(cc1OC)[C@H]1CCCC[C@H]1N=C2c1ccc(C(C)=NOCc2cccc(F)c2)cc1 [Compound 17] are within 0.2 log units of each other in “−log IC50, Inhibition” value: 8.41 for the first, 8.47 for the second.

Going from COc1ccc(CON=C(C)c2ccc(C3=NC4CCCCC4c4cc(OC)c(OC)cc43)cc2)cc1 [Compound 23, 1-[4-((4aR,10bR)-8,9-Dimethoxy-1,2,3,4,4a,10b-hexahydrophenanthridin-6}-phenyl]-ethanone O-(4-methoxybenzyl)-oxime] to COc1cc2c(cc1OC)[C@H]1CCCC[C@H]1N=C2c1ccc(C(C)=NOCc2ccc(F)cc2)cc1 [Compound 16, 1-[4-((4aR,10bR)-8,9-Dimethoxy1,2,3,4,4a,10b-hexahydrophenanthridin-6-yl}-phenyl]-ethanone O-(4-flurobenzyl)-oxime], the “−log IC50, Inhibition” value falls from 8.75 to 8.36.

Going from COc1cc2c(cc1OC)[C@H]1CCCC[C@H]1N=C2c1ccc(C(C)=NOCc2ccc([N+](=O)[O-])cc2)cc1 [Compound 5, 1-[4-((4aR,10bR)-8,9-Dimethoxy-1,2,3,4,4a,10b-hexahydrophenanthridin-6-yl}-phenyl]-ethanone O-(4-nitrobenzyl)-oxime] to COc1cc2c(cc1OC)[C@H]1CCCC[C@H]1N=C2c1ccc(C(C)=NOCc2ccc(Cl)cc2)cc1 [Compound 22, 1-[4-((4aR,10bR)-8,9-Dimethoxy-1,2,3,4,4a,10b-hexahydrophenanthridin-6-yl)-phenyl]-ethanone O-(4-chlorobenzyl)-oxime], the “−log IC50, Inhibition” value rises from 8.41 to 8.62.

First: COc1cc2c(cc1OC)C1CCCCC1N=C2c1ccc(C(=NO)c2ccccc2)cc1 [Compound 2, 1-[4-((4aR,10bR)-8,9-Dimethoxy-1,2,3,4a,10b-hexahydrophenanthridin-6-yl}phenyl]-1-phenyl-methanone oxime]
Second: COc1cc2c(cc1OC)[C@H]1CCCC[C@H]1N=C2c1cccc(C(=NO)c2ccccc2)c1 [Compound 26, 1-[3-((4aR,10bR)-8,9-Dimethoxy-1,2,3,4,4a,10b-hexahydrophenanthridin-6-yl}-phenyl]-1-phenyl-methanone oxime]
The “−log IC50, Inhibition” value of the first is lower: 9.04 for the first, 9.27 for the second.

Compared with COc1cc2c(cc1OC)C1CCCCC1N=C2c1ccc(C(C)=NOCC(=O)NCc2ccc(Cl)cc2)cc1 [Compound 12, N-(4-Chlorobenzyl)-2-{1-[4-((4aR,10bR)-8,9-dimethoxy-1,2,3,4,a,10b-hexahydrophenanthridin-6-yl)-phenyl]-ethylideneaminooxy}-acetamide], COc1ccccc1NC(=O)CON=C(C)c1ccc(C2=N[C@@H]3CCCC[C@@H]3c3cc(OC)c(OC)cc32)cc1 [Compound 11, 2-{1-[4-((4aR,10bR)-8,9-Dimethoxy-1,2,3,4,4a,10b-hexahydrophenanthridin-6-yl)-phenyl]ethylideneaminooxy}-N-(2-methoxyphenyl)-acetamide] is higher in “−log IC50, Inhibition” value: 8.48 for the first, 8.87 for the second.

First: COc1cc2c(cc1OC)[C@H]1CCCC[C@H]1N=C2c1ccc(C(C)=NOCc2ccccc2Cl)cc1 [Compound 18, 1-[4-((4aR,10bR)-8,9-Dimethoxy-1,2,3,4,4a,10b-hexahydrophenanthridin-6-yl}-phenyl]-ethanone O-(2-chlorobenzyl)-oxime]
Second: COc1ccccc1CON=C(C)c1ccc(C2=N[C@@H]3CCCC[C@@H]3c3cc(OC)c(OC)cc32)cc1 [Compound 15, 1-[4-((4aR,10bR)-8,9-Dimethoxy-1,2,3,4,4a,10b-hexahydrophenanthridin-6-yl}-phenyl]-ethanone O-(2-methoxy-benzyl)-oxime]
The “−log IC50, Inhibition” value of the first is higher: 8.73 for the first, 8.33 for the second.

COc1cc2c(cc1OC)[C@H]1CCCC[C@H]1N=C2c1ccc(C(C)=NOCc2ccccc2)cc1 [Compound 4, 1-[4-((4aR,10bR)-8,9-Dimethoxy-1,2,3,4,4a,10b-hexahydrophenanthridin-6-yl}-phenyl]-ethanone O-benzyloxime] and CCON=C(C)c1ccc(C2=N[C@@H]3CCCC[C@@H]3c3cc(OC)c(OC)cc32)cc1 [Compound 6, 1-[4-((4aR,10bR)-8,9-Dimethoxy-1,2,3,4,4a,10b-hexahydrophenanthridin-6-yl}-phenyl]ethanone O-ethyloxime] are within 0.2 log units of each other in “−log IC50, Inhibition” value: 8.20 for the first, 8.08 for the second.

First: COc1cc2c(cc1OC)[C@H]1CCCC[C@H]1N=C2c1ccc(C(C)=NOCC(C)C)cc1 [Compound 8, 1-[4-((4aR,10bR)-8,9-Dimethoxy-1,2,3,4,4a,10b-hexahydrophenanthridin-6yl)-phenyl]-ethanone O-isobutyloxime]
Second: COc1cc2c(cc1OC)[C@H]1CCCC[C@H]1N=C2c1ccc(C(C)=NO)cc1 [Compound 1, 1-[4-((4aR,10bR)-8,9-Dimethoxy-1,2,3,4,4a,10b-hexahydrophenanthridin-6-yl}-phenyl]-ethanone oxime]
The “−log IC50, Inhibition” value of the first is lower: 8.01 for the first, 9.43 for the second.

COc1cc2c(cc1OC)[C@H]1CCCC[C@H]1N=C2c1ccc(C(C)=NOCC(=O)N2CCOCC2)cc1 [Compound 24, 2-{1-[4-((4aR,10bR)-8,9-Dimethoxy-1,2,3,4,4a,10b-hexahydrophenanthridin-6-yl)-phenyl]-ethylideneaminooxy}-1-morpholin-4-yl-ethanone] and COc1cc2c(cc1OC)C1CCCCC1N=C2c1cccc(C(C)=NO)c1 (centres unmarked) [Compound 25] are within 0.2 log units of each other in “−log IC50, Inhibition” value: 8.25 for the first, 8.33 for the second.

Tested on: not given
Experiment: not given
Settings: not given

COc1cc2c(cc1OC)[C@H]1CCCC[C@H]1N=C2c1ccc(C(C)=NO)cc1 [Compound 1, 1-[4-((4aR,10bR)-8,9-Dimethoxy-1,2,3,4,4a,10b-hexahydrophenanthridin-6-yl}-phenyl]-ethanone oxime] gave a melting point of 189 to 192 °C.
